Measured values as given in patent US20100029542A1, “PROTEIN STERILISATION BY RADIATION AND ADDITION OF A STABILISING COMPOSITION” (priority 2006, published 2010).
Like-named read-outs stand apart in the source and are kept apart here. Where a SMILES comes first, the peptide text is derived from it.

Legend:
glucose oxidase = biological target: T1, glucose oxidase (Aspergillus niger, UniProt P13006); assay: Activity recovery of glucose oxidase in dry formulations following gamma irradiation; assay type: physicochemical; conditions: glucose oxidase 350 μg mL^−1 prior to drying, dry, 25-40 kGy
T1 construct: purchased Biocatalysts G575P
Procedure: (§1) In each example, an aqueous solution of a protein was prepared with selected additives in an Eppendorf tube or in a glass vial. Water was removed from the formulation by drying under a stream of nitrogen at 30° C. and subsequent incubation at atmospheric pressure in the presence of a dessicant. The Eppendorf tubes or the glass vials were sealed and delivered to an industrial sterilisation service for gamma irradiation, with a dose range typical for sterile medical products. The gamma-irradiated samples were reconstituted on their return and analysed for protein activity or structural integrity. The results were compared with those achieved using control (i.e. non-irradiated) samples.
(§2) The dry samples (approx. 20 μg in an Eppendorf tube) were gamma-irradiated by an industry-standard commercial sterilising service provided by Isotron PLC (Swindon, Wilts, UK), using a Cobalt 60 gamma source at ambient temperature. The radiation dose was in the range of 25-40 kGy.
(§3) The original solutions (i.e. solutions prior to drying) contained 350 μg mL^−1 of glucose oxidase and typically the total of 100 mM of protective compounds (i.e. 100 mM in case of a single compound, 50 mM+50 mM in case of two compounds, 33.3 mM+33.3 mM+33.3 mM in the case of three compounds etc.). The solutions were dried and gamma irradiated. Following the gamma irradiation, the samples, both pre- and post-gamma irradiated, were assayed for glucose oxidase activity. This was performed according to the following procedure:
Water was added to the sample to achieve 350 μg mL^−1 of glucose oxidase. 50 μL of the solution was added to 50 mL of deionised water. The following solutions were then added: • 10 mL of reagent mix (5 parts of 0.1 M sodium phosphate, pH 6+4 parts 2% w/w starch+1 part of 1 mg/mL lactoperoxidase enzyme); • 5 mL of 100 mM potassium iodide; and • 5 mL of 20% w/w glucose solution.
These were mixed together quickly. Time=0 was counted from the addition of the glucose. After 5 min, 1 ml of 5 M aq. hydrochloric acid was added to stop the reaction. The absorbance was then read at 630 nm using a Unicam UV-visible spectrophotometer (Type: Helios gamma). If the colour intensity was too great to allow an accurate reading, the sample was diluted with a defined volume of deionised water to bring the colour back on scale. The results were expressed as percentage recovery, by reference to the absorbance measured in the pre-gamma irradiation samples.

[1] = cited from earlier work; for Rate constant k: Table 1, singlet oxygen scavengers, measured in specified solvents
catalase = biological target: T2, catalase (Bos taurus, UniProt P00432); assay: Activity recovery of catalase in dry formulations following gamma irradiation; assay type: physicochemical, bovine; conditions: for Enzyme activity remaining after gamma-irradiation: catalase 100 μg mL^−1 prior to drying, dry, 25-40 kGy
T2 construct: Catalase (from bovine liver, Sigma C9322, 2380 U /mg solid); purchased Sigma C9322; host or cells: bovine liver
T2 sequence (P00432 2-527 limits assumed): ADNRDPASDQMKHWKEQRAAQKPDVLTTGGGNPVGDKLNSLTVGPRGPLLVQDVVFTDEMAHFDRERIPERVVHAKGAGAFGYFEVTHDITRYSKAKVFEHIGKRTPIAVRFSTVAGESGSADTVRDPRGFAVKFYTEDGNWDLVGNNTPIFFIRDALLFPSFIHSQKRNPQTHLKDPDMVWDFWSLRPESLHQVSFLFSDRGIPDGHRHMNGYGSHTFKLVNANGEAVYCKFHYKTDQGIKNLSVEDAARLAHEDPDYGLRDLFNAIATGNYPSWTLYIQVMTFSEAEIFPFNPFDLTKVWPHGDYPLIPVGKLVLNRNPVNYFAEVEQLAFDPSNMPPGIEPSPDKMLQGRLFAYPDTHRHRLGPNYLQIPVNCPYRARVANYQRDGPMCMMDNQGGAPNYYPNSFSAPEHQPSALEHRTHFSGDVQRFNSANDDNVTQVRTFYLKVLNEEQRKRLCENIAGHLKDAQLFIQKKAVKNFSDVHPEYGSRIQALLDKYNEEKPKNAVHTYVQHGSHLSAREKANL
Procedure: as §1, §2
as §3, with “contained 100” for “contained 350”, “of catalase” for “of glucose oxidase”
Water was added to the sample to achieve 100 μg mL^−1 of catalase. 100 μL of the solution was added to a mixture of 18 mL of PBS and 2 mL of hydrogen peroxide (30 mM in water) in a 125 mL polypropylene pot and mixed. The resulting mixture was incubated at room temperature precisely for 30 min. In the meantime, the following reagents were mixed in a plastic cuvette for spectrophotometric measurements: • 2.73 mL of citrate/phosphate buffer (0.1 M, pH 5.0) • 100 μL of tetramethylbenzidine (TMB) (3 mg/mL, dissolved in dimethyl sulphoxide (DMSO)) • 100 μL of lactoperoxidase
Following the 30 min incubation period, 70 μL of the catalase containing mixture was added to the cuvette and absorbance was read in approximately 30 s. The results were expressed as percentage recovery, by reference to the absorbance measured in the fresh samples (i.e. prior to incubation at increased temperature).

human growth hormone = biological target: T3, human growth hormone (Homo sapiens, UniProt P01241); assay: Recovery of structural integrity of human growth hormone in dry formulations following gamma irradiation (HPLC); assay type: physicochemical; conditions: structural integrity by HPLC, human growth hormone 2.5 mg mL^−1 prior to drying, 25-40 kGy
T3 construct: purchased National Institute of Biological Standards and Control; further samples on prescription from a GP surgery
Procedure: as §1, §2
Mobile phase was prepared by mixing 71 parts (by volume) of a solution of TRIS (0.05 M, in water adjusted with hydrochloric acid to a pH of 7.5) and 29 parts (by volume) of n-propylalcohol. The mobile phase was filtered prior to its use. The liquid chromatograph (Agilent 1100 series) was equipped with a 214 nm detector and a 4.6×250 mm column (Phenomenex 00G-4167-E0) packed with butylsilyl silica gel with a granulometry of 5 μm and a porosity of 30 nm, maintained at 45° C. The flow rate was maintained at 0.5 mL min^−1. 15 μL of aqueous samples of human growth hormone (typically 1-2.5 mg mL^−1) were injected. Results were expressed as % of peak area corresponding to the gamma irradiated sample with respect to that measured in non-irradiated sample.

Sandostatin = assay: Recovery of structural integrity of Sandostatin in dry formulations following gamma irradiation (HPLC); assay type: physicochemical; conditions: structural integrity by HPLC, excipient:Sandostatin weight ratio 10:1, 25-40 kGy
Procedure: as §1, §2
Mobile phase A was 0.1 M triethylamine adjusted to pH 2.3 with phosphoric acid. Mobile phase B was acetonitrile. The mobile phases were filtered prior to their use. The following linear gradient was used: time 0: 90% A+10% B; time 35 min: 60% A+40% B. The liquid chromatograph (Agilent 1100 series) was equipped with a 214 nm detector, guard column and a 4.6×150 mm C18 column with a granulometry of 5 μm and a porosity of 30 nm, maintained at ambient temperature. The flow rate was maintained at 1.0 mL min^−1. Injection volume was 50 μL (typically sandostatin at 200 μg mL^−1). Results were expressed as % of main peak area (i.e. area of the peak corresponding to intact sandostatin measured in the gamma irradiated sample with respect to that measured in non-irradiated sample of identical composition). A chromatogram of a standard solution of sandostatin was recorded after every 12 samples to ensure that no drift in the position of the major peak had occurred. The control measurements ruled out any ambiguity in interpreting the chromatograms.

[2] = Table 5, singlet oxygen scavengers, ambient temperature
[3] = Table 6, singlet oxygen scavengers, ambient temperature
[4] = Table 10, superoxide scavengers
[5] = Table 11, superoxide scavengers
[6] = Table 12, superoxide scavengers
[7] = Table 3, prior-art antioxidants, ambient temperature, vs non-irradiated
[8] = Table 4, prior-art antioxidants, ambient temperature
[9] = Table 7, singlet oxygen scavengers
[10] = Table 8, singlet oxygen scavengers

T1 sequence (P13006 17-605): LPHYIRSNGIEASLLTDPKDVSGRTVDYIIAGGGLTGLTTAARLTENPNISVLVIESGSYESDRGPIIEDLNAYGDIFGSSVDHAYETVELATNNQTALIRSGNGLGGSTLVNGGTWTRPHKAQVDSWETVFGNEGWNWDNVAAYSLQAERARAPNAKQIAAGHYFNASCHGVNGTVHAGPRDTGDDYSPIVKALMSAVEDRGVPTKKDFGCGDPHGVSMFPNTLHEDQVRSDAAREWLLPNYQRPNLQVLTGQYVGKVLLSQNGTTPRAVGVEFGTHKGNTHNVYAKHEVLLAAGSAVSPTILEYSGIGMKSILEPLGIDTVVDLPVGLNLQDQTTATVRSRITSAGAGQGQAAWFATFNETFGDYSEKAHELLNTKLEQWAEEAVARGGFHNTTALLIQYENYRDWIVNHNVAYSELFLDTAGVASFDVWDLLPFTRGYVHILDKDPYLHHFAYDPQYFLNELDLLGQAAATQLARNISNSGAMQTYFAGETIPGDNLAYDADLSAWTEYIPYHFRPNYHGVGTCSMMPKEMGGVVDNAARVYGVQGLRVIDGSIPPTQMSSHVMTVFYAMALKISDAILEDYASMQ
T3 sequence (P01241 27-217): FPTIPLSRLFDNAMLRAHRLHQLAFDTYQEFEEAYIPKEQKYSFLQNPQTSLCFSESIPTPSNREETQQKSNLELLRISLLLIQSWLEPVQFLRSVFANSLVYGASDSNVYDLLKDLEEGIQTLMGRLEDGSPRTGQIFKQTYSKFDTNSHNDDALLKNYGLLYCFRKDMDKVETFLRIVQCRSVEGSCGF

Compound: C[C@H](N)C(=O)O [Alanine]
- Enzyme activity remaining after gamma-irradiation (glucose oxidase; [2]): 15.3%
- Rate constant k [1]: k = 3.0 × 10^7 L mol^−1 s^−1
- Rate of reaction with singlet oxygen ([1]; Table 5): 3e+07 M⁻¹ s⁻¹
- Rate of reaction with singlet oxygen ([1]; Table 6): 3e+07 M⁻¹ s⁻¹
- Enzyme activity remaining after gamma-irradiation (catalase; [3]): 8.8%

Compound: [N-]=[N+]=[N-] [Azide anion]
- Rate constant k [1]: k = 4.5 × 10^8 L mol^−1 s^−1

Compound: O=C(O)CC(O)(CC(=O)O)C(=O)O [Citrate]
- Enzyme activity remaining after gamma-irradiation (glucose oxidase; Table 9, superoxide scavengers): 32.0%
- Enzyme activity remaining after gamma-irradiation (catalase; [4]): 39.5%
- Structural integrity remaining after gamma-irradiation (HPLC) (human growth hormone; [5]): 45.6%
- Enzyme activity remaining after gamma-irradiation (Sandostatin; [6]): 91.8%

Compound: [Cu+2] [Copper(II) ion]
- Rate constant k [1]: k = 6.4 × 10^7 L mol^−1 s^−1

Compound: N[C@@H](CS)C(=O)O [Cysteine anion]
- Rate constant k [1]: k = 1.5 × 10^8 L mol^−1 s^−1

Compound: CC12CCC(CC1)C(C)(C)O2 [Eucaliptol]
- Enzyme activity remaining after gamma-irradiation (glucose oxidase; Table 13, ozone scavengers): 17.5%
- Compatibility of the compound with catalase (catalase; as excipient in the formulation): inhibit catalase

Compound: NCC(=O)NCC(=O)O [Glycylglycine] (H-Gly-Gly-OH)
- Enzyme activity remaining after gamma-irradiation (glucose oxidase; [7]): 20.1%
- Structural integrity remaining after gamma-irradiation (HPLC) (human growth hormone; [8]): 47.2%

Compound: N[C@@H](Cc1c[nH]cn1)C(=O)O [Histidine]
- Enzyme activity remaining after gamma-irradiation (glucose oxidase; [2]): 57.9%
- Rate constant k [1]: k = 4.6 × 10^7 L mol^−1 s^−1
- Rate of reaction with singlet oxygen ([1]; Table 5): 4.6e+07 M⁻¹ s⁻¹
- Rate of reaction with singlet oxygen ([1]; Table 6): 4.6e+07 M⁻¹ s⁻¹
- Rate of reaction with singlet oxygen ([1]; Table 7): 4.6e+07 M⁻¹ s⁻¹
- Rate of reaction with singlet oxygen ([1]; Table 8): 4.6e+07 M⁻¹ s⁻¹
- Enzyme activity remaining after gamma-irradiation (catalase; [3]): 18.3%
- Structural integrity remaining after gamma-irradiation (HPLC) (human growth hormone; [9]): 55.5%
- Enzyme activity remaining after gamma-irradiation (Sandostatin; [10]): 85.0%

Compound: O=C(O)CC(O)C(=O)O (stereo not drawn) [Malate]
- Enzyme activity remaining after gamma-irradiation (glucose oxidase; Table 9, superoxide scavengers): 40.7%
- Enzyme activity remaining after gamma-irradiation (catalase; [4]): 40.9%
- Structural integrity remaining after gamma-irradiation (HPLC) (human growth hormone; [5]): 52.1%
- Enzyme activity remaining after gamma-irradiation (Sandostatin; [6]): 87.7%

Compound: OC[C@@H](O)[C@@H](O)[C@H](O)[C@H](O)CO [Mannitol]
- Enzyme activity remaining after gamma-irradiation (glucose oxidase; Table 9, superoxide scavengers): 17.2%
- Enzyme activity remaining after gamma-irradiation (catalase; [4]): 36.3%
- Structural integrity remaining after gamma-irradiation (HPLC) (human growth hormone; [5]): 28.3%
- Enzyme activity remaining after gamma-irradiation (Sandostatin; [6]): 72.6%

Compound: NC(=O)C1=CN([C@@H]2O[C@H](COP(=O)(O)OP(=O)(O)OC[C@H]3O[C@@H](n4cnc5c(N)ncnc54)[C@H](O)[C@@H]3O)[C@@H](O)[C@H]2O)C=CC1 [NADH]
- Rate constant k [1]: k = 2 × 10^7 L mol^−1 s^−1

Compound: [Ni+2] [Nickel (II) ion]
- Rate constant k [1]: k = 3.3 × 10^7 L mol^−1 s^−1

Compound: CC(=O)CCCCn1c(=O)c2c(ncn2C)n(C)c1=O [Pentoxyfylline, reference compound]
- Enzyme activity remaining after gamma-irradiation (glucose oxidase; Table 13, ozone scavengers): 36.2%
- Enzyme activity remaining after gamma-irradiation (catalase; Table 14, ozone scavenger): 77.0%
- Structural integrity remaining after gamma-irradiation (HPLC) (human growth hormone; Table 15, ozone scavenger): 46.0%

Compound: Cc1ncc(C[n+]2csc(CCO)c2C)c(N)n1 [Thiamine]
- Enzyme activity remaining after gamma-irradiation (glucose oxidase; [2]): 43.1%
- Rate constant k [1]: k = 6 × 10^7 L mol^−1 s^−1
- Rate of reaction with singlet oxygen ([1]; Table 5): 6e+07 M⁻¹ s⁻¹
- Rate of reaction with singlet oxygen ([1]; Table 6): 6e+07 M⁻¹ s⁻¹
- Rate of reaction with singlet oxygen ([1]; Table 7): 6e+07 M⁻¹ s⁻¹
- Rate of reaction with singlet oxygen ([1]; Table 8): 6e+07 M⁻¹ s⁻¹
- Enzyme activity remaining after gamma-irradiation (catalase; [3]): 26.1%
- Structural integrity remaining after gamma-irradiation (HPLC) (human growth hormone; [9]): 48.8%
- Enzyme activity remaining after gamma-irradiation (Sandostatin; [10]): 87.7%

Compound: O=S(=O)(O)c1cc(O)c(O)c(S(=O)(=O)O)c1 [Tiron]
- Enzyme activity remaining after gamma-irradiation (glucose oxidase; Table 9, superoxide scavengers): 27.5%
- Enzyme activity remaining after gamma-irradiation (catalase; [4]): 17.9%
- Structural integrity remaining after gamma-irradiation (HPLC) (human growth hormone; [5]): 55.7%
- Enzyme activity remaining after gamma-irradiation (Sandostatin; [6]): 89.7%

Compound: Cc1c(C)c2c(c(C)c1O)CCC(C)(C(=O)O)O2 (stereo not drawn) [Trolox]
- Enzyme activity remaining after gamma-irradiation (glucose oxidase; [7]): 45.9%
- Structural integrity remaining after gamma-irradiation (HPLC) (human growth hormone; [8]): 49.6%

Compound: Oc1nc(O)c2nc(O)[nH]c2n1 [Urate]
- Enzyme activity remaining after gamma-irradiation (glucose oxidase; [7]): 32.6%
- Structural integrity remaining after gamma-irradiation (HPLC) (human growth hormone; [8]): 61.5%

Compound: Silymarine
- Enzyme activity remaining after gamma-irradiation (glucose oxidase; [7]): 46.3%
- Structural integrity remaining after gamma-irradiation (HPLC) (human growth hormone; [8]): 63.0%
